10 compounds from ChEMBL document CHEMBL4680216, “Comparative analysis of the dual EGFR-DNA targeting and growth inhibitory properties of 6-mono-alkylamino- and 6,6-dialkylaminoquinazoline-based type II combi-molecules” (Eur J Med Chem, 2020) can be followed below.

Data set [1] concerns the target T1, Epidermal growth factor receptor (Homo sapiens, UniProt P00533). Nature of the data set: Irreversible inhibition of EGFR in human A549 cells at 2 uM preincubated for 2 hrs followed by compound wash out with serum free media followed by EGF stimulation and measured after 30 mins by Western blot analysis. It is filed as cell-based. To be noted: time 2.5 hrs. A general note: Immunoblotting shows a protein as a band on a membrane.

Data set [2] relates to A549. Nature of the data set: Growth inhibition of human A549 cells incubated for 5 days by SRB assay. It is filed as functional, cell-based. The note with it: A549, 120 h.
The target of data set [3] is T1, Epidermal growth factor receptor. Nature of the data set: Inhibition of EGFR (unknown origin) using poly (Glu,Tyr) 4:1 as substrate incubated for 8 mins in presence of ATP by colorimetric analysis.
Data set [4] concerns NCI-H1975. Nature of the data set: Growth inhibition of human NCI-H1975 cells incubated for 5 days by SRB assay. It counts as functional, cell-based. The note with it: NCI-H1975, 120 h. (Sulforhodamine B stains cellular protein and so reports cell mass.)
Data set [5] can be described thus: Toxicity in po dosed CD-1 mouse assessed as maximum tolerated dose. To be noted: in vivo. It counts as organism-based.
Data set [6] concerns NCI-H1975. Nature of the data set: Potency index, ratio of gefitinib IC50 in presence of chlorambucil to test compound IC50 for growth inhibition of human NCI-H1975 cells. It is filed as functional.
Data set [7] concerns Calf thymus DNA. Nature of the data set: Binding affinity to calf thymus DNA assessed as guanine alkylated adduct formation at 10 mM after 5 days by LC-MS/MS analysis. It is filed as nucleic-acid assay. The note with it: Bos taurus, time 5.0 day.
Data set [8] has as its target T1, Epidermal growth factor receptor. Nature of the data set: Inhibition of EGFR phosphorylation in human A549 cells assessed as downregulation AKT pathway at 1 to 10 uM preincubated for 2 hrs followed by EGF stimulation and measured after 30 mins by Western blot analysis. It counts as cell-based. To be noted: dose 1-10 µM, time 2.5 hrs.
Data set [9] has as its system Calf thymus DNA. Nature of the data set: Binding affinity to calf thymus DNA assessed as adenine alkylated adduct formation at 10 mM after 5 days by LC-MS/MS analysis. It counts as nucleic-acid assay. The note with it: Bos taurus, time 5.0 day.
The test system of data set [10] is A549. Nature of the data set: Induction of DNA damage in human A549 cells at 0.1 to 10 uM after 2 hrs by comet assay. It is filed as functional, cell-based. To be noted: dose 0.1-10 µM.
In data set [11] the test system is NCI-H1975. Nature of the data set: Potency index, ratio of gefitinib IC50 to test compound IC50 for growth inhibition of human NCI-H1975 cells. It is filed as functional.
Data set [12] deals with T1, Epidermal growth factor receptor. Nature of the data set: Inhibition of EGFR phosphorylation in human A549 cells assessed as downregulation MAPK pathway at 1 to 10 uM preincubated for 2 hrs followed by EGF stimulation and measured after 30 mins by Western blot analysis. It is filed as cell-based. To be noted: dose 1-10 µM, time 2.5 hrs.
Data set [13] deals with A549. Nature of the data set: Potency index, ratio of gefitinib IC50 to test compound IC50 for growth inhibition of human A549 cells. It is filed as functional.
Data set [14] has as its system Calf thymus DNA. Nature of the data set: Binding affinity to calf thymus DNA assessed as compound hydrolysis at 10 mM after 5 days by LC-MS/MS analysis. It counts as nucleic-acid assay. To be noted: Bos taurus, time 5.0 day.
Data set [15] concerns the target T1, Epidermal growth factor receptor. Nature of the data set: Inhibition of EGFR phosphorylation in human PC-9 cells assessed as downregulation AKT pathway at 1 to 10 uM preincubated for 2 hrs followed by EGF stimulation and measured after 30 mins by Western blot analysis. It counts as cell-based. To be noted: dose 1-10 µM, time 2.5 hrs.
For data set [16] the target is unchanged. Nature of the data set: Inhibition of EGFR phosphorylation in human A549 cells at 1 to 10 uM preincubated for 2 hrs followed by EGF stimulation and measured after 30 mins by Western blot analysis. It is filed as cell-based. The note with it: dose 1-10 µM, time 2.5 hrs.
For data set [17] the target is unchanged. Nature of the data set: Inhibition of EGFR phosphorylation in human PC-9 cells assessed as downregulation MAPK pathway at 1 to 10 uM preincubated for 2 hrs followed by EGF stimulation and measured after 30 mins by Western blot analysis. It is filed as cell-based. The note with it: dose 1-10 µM, time 2.5 hrs.
For data set [18] the target is unchanged. Nature of the data set: Inhibition of EGFR phosphorylation in human PC-9 cells at 1 to 10 uM preincubated for 2 hrs followed by EGF stimulation and measured after 30 mins by Western blot analysis. The note with it: dose 1-10 µM, time 2.5 hrs. It counts as cell-based.
In data set [19] the test system is PC-9. Nature of the data set: Growth inhibition of human PC-9 cells incubated for 5 days by SRB assay. It is filed as functional, cell-based. The note with it: PC-9, 120 h.
Data set [20] deals with A549. Nature of the data set: Potency index, ratio of gefitinib IC50 in presence of chlorambucil to test compound IC50 for growth inhibition of human A549 cells. It counts as functional.
Data set [21] addresses T1, Epidermal growth factor receptor. Nature of the data set: Inhibition of EGFR phosphorylation in human NCI-H1975 cells at 1 to 10 uM preincubated for 2 hrs followed by EGF stimulation and measured after 30 mins by Western blot analysis. It is filed as cell-based. To be noted: dose 1-10 µM, time 2.5 hrs.
Data set [22] has the same target. Nature of the data set: Inhibition of EGFR phosphorylation in human NCI-H1975 cells assessed as downregulation MAPK pathway at 1 to 10 uM preincubated for 2 hrs followed by EGF stimulation and measured after 30 mins by Western blot analysis. It is filed as cell-based. To be noted: dose 1-10 µM, time 2.5 hrs.
Data set [23] shares this target. Nature of the data set: Inhibition of EGFR phosphorylation in human NCI-H1975 cells assessed as downregulation AKT pathway at 1 to 10 uM preincubated for 2 hrs followed by EGF stimulation and measured after 30 mins by Western blot analysis. It counts as cell-based. The note with it: dose 1-10 µM, time 2.5 hrs.

SMILES strings stand for the structures. The source made the active and inactive calls. The calls are words filed in the database; no cut-off is given here.

T1 sequence (P00533 whole entry): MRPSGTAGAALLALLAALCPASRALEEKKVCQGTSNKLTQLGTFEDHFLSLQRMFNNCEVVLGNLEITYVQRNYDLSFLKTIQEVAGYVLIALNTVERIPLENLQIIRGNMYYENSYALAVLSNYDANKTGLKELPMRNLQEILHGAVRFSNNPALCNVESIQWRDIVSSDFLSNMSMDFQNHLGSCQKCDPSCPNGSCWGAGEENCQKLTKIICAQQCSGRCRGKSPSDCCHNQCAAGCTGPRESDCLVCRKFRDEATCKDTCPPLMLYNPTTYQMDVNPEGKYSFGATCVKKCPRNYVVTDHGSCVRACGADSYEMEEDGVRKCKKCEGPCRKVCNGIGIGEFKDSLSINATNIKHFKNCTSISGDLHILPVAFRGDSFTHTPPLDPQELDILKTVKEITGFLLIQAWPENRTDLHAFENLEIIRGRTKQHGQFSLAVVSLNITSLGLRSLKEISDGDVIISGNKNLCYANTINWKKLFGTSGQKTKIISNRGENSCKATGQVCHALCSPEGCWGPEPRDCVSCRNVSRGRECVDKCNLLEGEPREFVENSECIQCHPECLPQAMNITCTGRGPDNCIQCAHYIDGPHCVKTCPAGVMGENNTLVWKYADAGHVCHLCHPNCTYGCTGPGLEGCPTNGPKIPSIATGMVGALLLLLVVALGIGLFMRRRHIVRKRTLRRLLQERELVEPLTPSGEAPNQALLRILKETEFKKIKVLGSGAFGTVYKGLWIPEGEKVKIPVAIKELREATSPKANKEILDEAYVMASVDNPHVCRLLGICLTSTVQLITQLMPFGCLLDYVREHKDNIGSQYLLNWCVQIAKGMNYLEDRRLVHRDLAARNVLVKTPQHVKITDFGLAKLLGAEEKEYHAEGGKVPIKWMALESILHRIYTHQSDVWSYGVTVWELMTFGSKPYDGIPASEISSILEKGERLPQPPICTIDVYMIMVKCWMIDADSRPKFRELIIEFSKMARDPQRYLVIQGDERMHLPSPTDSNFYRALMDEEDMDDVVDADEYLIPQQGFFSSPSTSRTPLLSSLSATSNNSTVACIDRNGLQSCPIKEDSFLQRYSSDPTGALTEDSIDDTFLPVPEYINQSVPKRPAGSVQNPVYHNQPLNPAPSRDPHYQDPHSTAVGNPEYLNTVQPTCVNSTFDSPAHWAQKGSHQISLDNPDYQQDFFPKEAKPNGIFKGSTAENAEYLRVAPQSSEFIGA

The term IC50 denotes the concentration that inhibits the measured activity by half. In general, MTD refers to the highest dose tested that stayed within the study's limit of toxicity. As for `CN(CCCl)c1ccc2ncnc(Nc3cccc(Br)c3)c2c1`, the inhibition entry in data set [1] was “inactive”. For the same compound, the IC50 in data set [2] was 3.16 µM; in data set [3], 0.504 µM; in data set [4], 2.81 µM; in [19], 0.21 µM. Further, in data set [5], the MTD came out at 150 mg/kg. For the same compound, the “Ratio IC50” value in [6], in data set [11], in data set [13] and in [20] was 2 in each case. For the same compound, the outcome in data set [7], in [9], in data set [10] and in data set [14] was Active. The inhibition entry in data set [8], in data set [12], in data set [15], in data set [16], in data set [17] and in [18] was “Active” in each case.

With `O=C(O)CCCc1ccc(N(CCCl)CCCl)cc1` [CHLORAMBUCIL], the IC50 was determined as 24.5 µM in [2], 28.2 µM in data set [4] and 7.17 µM in data set [19]. Further, in data set [10], the result was inactive. Besides, the inhibition result in data set [21], in [16] and in data set [18] was “inactive” each time.

As for `CC(=O)OCCN(CCOC(C)=O)c1ccc2ncnc(Nc3cccc(Br)c3)c2c1`, the half-maximal inhibitory concentration (IC50) in data set [2] was 52.6 µM; in data set [4] it was 20.2 µM; in data set [19] it was 0.13 µM.

Regarding `CC(=O)OCCN(CCO)c1ccc2ncnc(Nc3cccc(Br)c3)c2c1`, the half-maximal inhibitory concentration (IC50) in [2] was found to be 48 µM; in data set [4], 16 µM; in data set [19], 0.086 µM.

For `CN(CCO)c1ccc2ncnc(Nc3cccc(Br)c3)c2c1`, the IC50 in [2] was 34.5 µM; in [4] it was 11.3 µM; in data set [19] it was 0.103 µM.

For the compound `CC(=O)OCCN(C)c1ccc2ncnc(Nc3cccc(Br)c3)c2c1`, the IC50 was determined as 30.5 µM in data set [2], 9.4 µM in data set [4] and 0.098 µM in data set [19].

As for `COc1cc2ncnc(Nc3ccc(F)c(Cl)c3)c2cc1OCCCN1CCOCC1`, in data set [10], the result was inactive.

As to `ClCCN(CCCl)c1ccc2ncnc(Nc3cccc(Br)c3)c2c1`, the inhibition result in [1], in data set [8], in [22], in data set [12], in data set [21] and in data set [23] was “Active” each time. For the same compound, the inhibition result in data set [15], in [16], in [17] and in data set [18] was “Active” each time. Besides, the IC50 was 6.51 µM in data set [2], 1.26 µM in data set [3], 6.07 µM in [4] and 0.203 µM in data set [19]. Further, the MTD in data set [5] came out at 150 mg/kg. Moreover, the result in data set [7], in data set [9], in [10] and in data set [14] was Active.

As to `ClCCNc1ccc2ncnc(Nc3cccc(Br)c3)c2c1`, the inhibition entry in data set [1], in [8], in data set [12], in data set [15], in data set [16] and in data set [17] was “Active” in each case. Further, the inhibition result in data set [18] was “Active”. The IC50 was 2.06 µM in data set [2], 0.48 µM in data set [4] and 0.09 µM in data set [19]. In data set [5], the MTD worked out at 150 mg/kg. For the same compound, the result in [7], in data set [9], in data set [10] and in data set [14] was Active.

As to `OCCN(CCO)c1ccc2ncnc(Nc3cccc(Br)c3)c2c1`, the IC50 in [2] worked out at 46.6 µM; in data set [4] it was 18.1 µM; in data set [19], 0.07 µM.
